Consider one compound from patent US8697081B2, “Method of modulating neovascularization” (The Regents of the University of Michigan, priority 2008, dated 2014).

Holding throughout (format): cell-based
Test [1] concerns human endothelial cells. The test is described as follows: Cell morphology, migration and cell number of endothelial cells in 3-D fibrin gel. The following applies: 2 days, 50 μM blebbistatin. The method, then: Endothelial cells were isolated from human umbilical cord veins by collagenase digestion and cultured in Medium 199 (Gibco) containing 20% human serum, 50 μg/ml endothelial cell growth supplement (BD Biosciences), 100 U/ml penicillin, and 100 μg/ml streptomycin (Hiraoka et al. 1998. Cell, 95(3): 365-377). […]
The effect of Fn matrix assembly, or lack thereof, on endothelial cell function during neovascularization was assessed. […]
(Chernousov et al. 1991. J. Biol. Chem., 266(17): 10851-10858; Tomasini-Johansson et al. 2001. J. Biol. Chem., 276(26): 23430-23439; Mao and Schwarzbauer. 2005. Matrix Biol., 24(6): 389-399; and Tomasini-Johansson et al. 2006. Matrix Biol., 25(5): 282-293). […] Cell number in 3-D cultures was determined by hemacytometry after dissolving gels with 2 mg/ml bacterial collagenase (Worthington) while the number of patent tubules was determined in randomly selected cross-sections. Fn matrix assembly and cell morphology were monitored by confocal laser microscopy. To examine cell migration, endothelial cells were embedded in a 100 μl fibrin gel for 2 hours, then placed within a 500 μl gel for 8 days in the presence of Del29, FUD, control IgG, or L8, after which migration from the inner gel was assessed. […]

In test [2] the test system is human endothelial cells. The test is described as follows: F-actin cytoskeletal organization, activated β1 integrin and vinculin distribution (phalloidin, confocal). To be noted: 3-D fibrin gel, 2 days, 50 μM blebbistatin. The method, then: To further study the effects of Fn matrix inhibition, additional cytological processes associated with angiogenesis were examined. Endothelial cells were cultured within 3-D or 2-D fibrin gels in the presence of the FUD or Del 29 peptides for 2 days. F-actin cytoskeletal organization was monitored following staining with Alexa 488-conjugated phalloidin. Cells also were stained with an antibody against activated β1 integrin or transfected with a GFP-tagged vinculin expression vector (pRK-vinculin-EGFP) to study distribution. Following counterstaining with Alexa 594-labeled phalloidin, fluorescence was monitored by confocal laser microscopy.
In the absence of Fn fibrillogenesis, an impaired ability of embedded endothelial cells to generate myosin-dependent forces and increase cytoplasmic stiffness was predicted to affect both Fn unfolding, as well as the ability of the cells to properly register the mechanical properties of the surrounding substratum (Wu et al. 1995. Cell, 83(5): 715-724; Zhong et al. 1998. J. Cell Biol., 141(2): 539-551; Baneyx et al. 2002. Proc. Natl. Acad. Sci. USA, 99(8): 5139-5143; Discher et al. 2005. Science, 310(5751): 1139-1143; Engler, supra; and Yoneda, supra). As such, the rheologic and functional characteristics of endothelial cells were assessed in the presence of the specific myosin ATPase inhibitor, blebbistatin. […]

Test [3] deals with Human umbilical vein endothelial cells. Description: Chromatin organization (GFP-H2B, H3K9me3) and histone H3/H4 acetylation. To be noted: 3-D culture, VEGF/HGF-stimulated, blebbistatin or nocodazole. The text has this: At sites of tissue damage, inflammation or neoplasia, fibrinogen is converted into a 3-D meshwork of fibrin fibrils that serve as a structural support for endothelial cells undergoing neovascularization (Chun et al. 2006. Cell, 125: 577-591; Hiraoka et al. 1998. Cell, 95: 365-377; Schafer and Werner. 2008. Nat. Rev. Mol. Cell Biol., 9: 628-638; Zhou et al. 2008. Genes Dev., 22: 1231-1243). This process can be recapitulated in vitro by embedding serum-supplemented human endothelial cells within a 3-D fibrin gel in the presence of the pro-angiogenic factors, VEGF and HGF. Human umbilical vein endothelial cells were isolated from umbilical cords by perfusion of the umbilical vein with type 3 collagenase (Worthington, Lakewood, N.J.) and cultured in Medium-199 (Invitrogen, Carlsbad, Calif.) with 20% human serum and 50 μg/ml endothelial cell growth supplement (ECGS; BD Biosciences, Franklin Lakes, N.J.). For 3-D culture, endothelial cells were suspended in a solution of thrombin and aprotinin (Sigma, St. Louis, Mo.) and mixed 1:1 with a solution of 6 mg/ml fibrinogen (Calbiochem, Gibbstown, N.J.). Vasculogenesis was triggered by treatment with 100 ng/ml VEGF, 50 ng/ml HGF (Genentech, San Francisco, Calif.). Fibronectin fibrillogenesis was tracked in 3-D by co-culture with human fibronectin (Sigma) labeled with Alexa-594 (Invitrogen).
Yet, multi-lobed nuclei and anomalous nuclear pore complex distributions can be observed in laminopathies, a pleiotropic series of genetic disorders wherein mutations in lamin or emerin impact chromatin organization, histone modifications, and transcriptional activity (Csoka et al., 2004. Aging Cell, 3: 235-243; Dechat et al., 2008. Genes Dev, 22: 832-853; Dillon, 2008. Dev Cell, 15: 182-186; Malhas et al., 2007. J. Cell Biol., 176: 593-603; Mendjan et al., 2006. Mol. Cell, 21: 811-823; Shumaker et al., 2006. Proc. Natl. Acad. Sci. USA, 103: 8703-8708; Tang et al., 2008. J. Cell Sci., 121: 1014-1024). To determine whether VEGF/HGF-dependent changes in nuclear shape similarly affect chromatin structure/function, chromatin packaging was tracked at the single-endothelial cell level by monitoring GFP-tagged histone H2B or pericentromeric constitutive heterochromatin localization. […] heterochromatin localization was visualized by immunostaining for trimethylated lysine 9 of histone H3 (H3K9me3) (Shumaker, supra; Tang, supra).
Histone acetylation can be regulated by chromatin positioning within the nucleus (Finlan et al., 2008. PLoS Genet, 4: e1000039; Somech et al., 2005. J. Cell Sci., 118: 4017-4025). Thus, the acetylation status of histones H3 and H4 was assessed as functional markers of changes in chromatin organization. […]

Consider `Cc1ccc2c(c1)C(=O)C1(O)CCN(c3ccccc3)C1=N2` (stereo not shown) [blebbistatin], for which the cell shape change result in the test with human endothelial cells [1] is given as “failed to undergo”. Moreover, the cytoskeletal architecture reorganization result with human endothelial cells [2] was “did not reorganize”. In addition, in test [3], the chromatin distribution result is recorded as “chromatin condensations at the nuclear periphery with increased interchromatin space”; the “levels of acetylated histones H3 and H4” value is “decreased levels”.
